Test results reported in patent publication US4740233A, “Substituted 1,2,4-triazolo[1,5-a]-pyrimidine-2-sulfonamides and compositions and methods of controlling undesired vegetation and suppressing the nitrification of ammonium nitrogen in soil” (The Dow Chemical Company, priority 1986, dated 1988).

How the values were obtained:
[1] = system: wild oats; assay: Postemergent control of plant species; assay type: in vivo, Avena fatua; settings: Avena fatua, post-emergence, 336 h, read-out: percent postemergent control
Outline: (§1)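 Foliar spray, 2-4 leaf stage, greenhouse. Formulation: acetone solution (2x final conc.) mixed 1:1 with water + 0.1% surface active agent. ~2 wk hold, watered as needed. Readout = % growth reduction vs untreated same-species controls.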

[2] = system: soybean; assay: Postemergent control of plant species; assay type: in vivo, Glycine max.; settings: Glycine max, post-emergence, 336 h, read-out: percent postemergent control
Outline: as §1

[3] = system: pigweed; assay: Postemergent control of plant species; assay type: in vivo, Amaranthus spp.; settings: Amaranthus retroflexus, post-emergence, 336 h, read-out: percent postemergent control
Outline: as §1

[4] = system: sugar beet; assay: Postemergent control of plant species; assay type: in vivo, Beta saccharifera; settings: Beta vulgaris, post-emergence, 336 h, read-out: percent postemergent control
Outline: as §1

[5] = system: jimsonweed; assay: Postemergent control of plant species; assay type: in vivo, Datura stramonium; settings: Datura stramonium, post-emergence, 336 h, read-out: percent postemergent control
Outline: as §1

[6] = system: yellow nutsedge; assay: Postemergent control of plant species; assay type: in vivo, Cyperus esculentus; settings: Cyperus, post-emergence, 336 h, read-out: percent postemergent control
Outline: as §1

[7] = system: velvetleaf; assay: Postemergent control of plant species; assay type: in vivo, Abutilon theophrasti; settings: Abutilon theophrasti, post-emergence, 336 h, read-out: percent postemergent control
Outline: as §1

[8] = system: rape; assay: Postemergent control of plant species; assay type: in vivo, Brassica napus; settings: Brassica napus, post-emergence, 336 h, read-out: percent postemergent control
Outline: as §1

[9] = system: johnson grass; assay: Postemergent control of plant species; assay type: in vivo, Sorghum halepense; settings: Sorghum halepense, post-emergence, 336 h, read-out: percent postemergent control
Outline: as §1

[10] = system: barnyardgrass; assay: Postemergent control of plant species; assay type: in vivo, Echinochloa crusgalli; settings: Echinochloa crus-galli, post-emergence, 336 h, read-out: percent postemergent control
Outline: as §1

[11] = system: corn; assay: Postemergent control of plant species; assay type: in vivo, Zea mays; settings: Zea mays, post-emergence, 336 h, read-out: percent postemergent control
Outline: as §1

[12] = system: crabgrass; assay: Postemergent control of plant species; assay type: in vivo, Digitaria spp.; settings: Digitaria sanguinalis, post-emergence, 336 h, read-out: percent postemergent control
Outline: as §1

[13] = system: rice; assay: Postemergent control of plant species; assay type: in vivo, Oryza sativa; settings: Oryza sativa, post-emergence, 336 h, read-out: percent postemergent control
Outline: as §1

[14] = system: cotton; assay: Postemergent control of plant species; assay type: in vivo, Gossypium spp.; settings: Gossypium hirsutum, post-emergence, 336 h, read-out: percent postemergent control
Outline: as §1

[15] = system: wheat; assay: Postemergent control of plant species; assay type: in vivo, Triticum aestivum; settings: Triticum aestivum, post-emergence, 336 h, read-out: percent postemergent control
Outline: as §1

[16] = system: annual morning glory; assay: Postemergent control of plant species; assay type: in vivo, Ipomoea spp.; settings: Ipomoea, post-emergence, 336 h, read-out: percent postemergent control
Outline: as §1

[17] = system: sorghum; assay: Postemergent control of plant species; assay type: in vivo, Sorghum vulgare; settings: Sorghum, post-emergence, 336 h, read-out: percent postemergent control
Outline: as §1

[18] = system: cocklebur; assay: Postemergent control of plant species; assay type: in vivo, Xanthium spp.; settings: Xanthium strumarium, post-emergence, 336 h, read-out: percent postemergent control
Protocol: In representative operations, each compound to be utilized in a series of tests is dissolved in acetone to one-half of the final volume (twice the final concentration) to be used and the acetone solution in each case is admixed with an equal volume of water containing 0.1 percent by weight of surface active material. The compositions, generally in the nature of an emulsion, were employed to spray separate respective plant species which had been grown to a 2-4 leaf stage in soil of good nutrient content in a greenhouse. The various beds were positioned side by side and exposed to substantially identical conditions of temperature and light. Each bed was maintained so as to prevent any interaction with test compounds in different seed beds. Other plants were left untreated to serve as controls. After treatment, the plants were maintained for about two weeks under greenhouse conditions conducive for good plant growth and watered as necessary. Control refers to the reduction in growth compared to the observed results of the same untreated species.

[19] = system: yellow foxtail; assay: Postemergent control of plant species; assay type: in vivo, Setaria lutescens; settings: Setaria, post-emergence, 336 h, read-out: percent postemergent control
Outline: as §1

[20] = system: rice; assay: Preemergent control of plant species; assay type: in vivo, Oryza sativa; settings: Oryza sativa, pre-emergence, 336 h; 0.25 lb/acre; read-out: percent preemergent control
Outline: (§2)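 Growth reduction relative to untreated plants of the same species, assessed two weeks after treatment, defines the control value. Compositions, mostly aqueous emulsions, were deposited uniformly on seeded greenhouse soil beds at the tabulated rates, with a water-treated bed as reference.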

[21] = system: yellow nutsedge; assay: Preemergent control of plant species; assay type: in vivo, Cyperus esculentus; settings: Cyperus, pre-emergence, 336 h; 0.25 lb/acre; read-out: percent preemergent control
Outline: as §2

[22] = system: barnyardgrass; assay: Preemergent control of plant species; assay type: in vivo, Echinochloa crusgalli; settings: Echinochloa crus-galli, pre-emergence, 336 h; 0.25 lb/acre; read-out: percent preemergent control
Outline: as §2

[23] = system: sugar beet; assay: Preemergent control of plant species; assay type: in vivo, Beta saccharifera; settings: Beta vulgaris, pre-emergence, 336 h; 0.25 lb/acre; read-out: percent preemergent control
Outline: as §2

[24] = system: jimsonweed; assay: Preemergent control of plant species; assay type: in vivo, Datura stramonium; settings: Datura stramonium, pre-emergence, 336 h; 0.25 lb/acre; read-out: percent preemergent control
Outline: as §2

[25] = system: annual morning glory; assay: Preemergent control of plant species; assay type: in vivo, Ipomoea spp.; settings: Ipomoea, pre-emergence, 336 h; 0.25 lb/acre; read-out: percent preemergent control
Outline: as §2

[26] = system: yellow foxtail; assay: Preemergent control of plant species; assay type: in vivo, Setaria lutescens; settings: Setaria, pre-emergence, 336 h; 0.25 lb/acre; read-out: percent preemergent control
Outline: as §2

[27] = system: rape; assay: Preemergent control of plant species; assay type: in vivo, Brassica napus; settings: Brassica napus, pre-emergence, 336 h; 0.25 lb/acre; read-out: percent preemergent control
Outline: as §2

[28] = system: soybean; assay: Preemergent control of plant species; assay type: in vivo, Glycine max.; settings: Glycine max, pre-emergence, 336 h; 0.25 lb/acre; read-out: percent preemergent control
Outline: as §2

[29] = system: velvetleaf; assay: Preemergent control of plant species; assay type: in vivo, Abutilon theophrasti; settings: Abutilon theophrasti, pre-emergence, 336 h; 0.25 lb/acre; read-out: percent preemergent control
Outline: as §2

[30] = system: johnson grass; assay: Preemergent control of plant species; assay type: in vivo, Sorghum halepense; settings: Sorghum halepense, pre-emergence, 336 h; 0.25 lb/acre; read-out: percent preemergent control
Outline: as §2

[31] = system: cotton; assay: Preemergent control of plant species; assay type: in vivo, Gossypium spp.; settings: Gossypium hirsutum, pre-emergence, 336 h; 0.25 lb/acre; read-out: percent preemergent control
Outline: as §2

[32] = system: wheat; assay: Preemergent control of plant species; assay type: in vivo, Triticum aestivum; settings: Triticum aestivum, pre-emergence, 336 h; 0.25 lb/acre; read-out: percent preemergent control
Outline: as §2

[33] = system: corn; assay: Preemergent control of plant species; assay type: in vivo, Zea mays; settings: Zea mays, pre-emergence, 336 h; 0.25 lb/acre; read-out: percent preemergent control
Outline: as §2

[34] = system: sorghum; assay: Preemergent control of plant species; assay type: in vivo, Sorghum vulgare; settings: Sorghum, pre-emergence, 336 h; 0.25 lb/acre; read-out: percent preemergent control
Outline: as §2

[35] = system: wild oats; assay: Preemergent control of plant species; assay type: in vivo; settings: Avena fatua, pre-emergence, 336 h; 0.25 lb/acre; read-out: percent preemergent control
Outline: as §2

| SMILES | pest or weed control at 500 ppm [1] [%] | plant injury at 500 ppm [2] [%] | pest or weed control at 500 ppm [3] [%] | plant injury at 500 ppm [4] [%] | pest or weed control at 500 ppm [5] [%] | pest or weed control at 500 ppm [6] [%] | pest or weed control at 500 ppm [7] [%] | plant injury at 500 ppm [8] [%] | pest or weed control at 500 ppm [9] [%] | pest or weed control at 500 ppm [10] [%] | plant injury at 500 ppm [11] [%] | pest or weed control at 500 ppm [12] [%] | plant injury at 500 ppm [13] [%] | plant injury at 500 ppm [14] [%] | plant injury at 500 ppm [15] [%] | pest or weed control at 500 ppm [16] [%] | plant injury at 500 ppm [17] [%] | pest or weed control at 500 ppm [18] [%] | pest or weed control at 500 ppm [19] [%] | plant injury at 280.212 g/ha [20] [%] | other results |
| --- | --- | --- | --- | --- | --- | --- | --- | --- | --- | --- | --- | --- | --- | --- | --- | --- | --- | --- | --- | --- | --- |
| Cc1nc2nc(S(=O)(=O)Nc3ccccc3[N+](=O)[O-])nn2c2c1CCC2 [Compound 105] | 0 | 95 | 60 | 90 | 60 | 0 | 0 | 40 | 0 | 20 | 80 | 0 | 20 | 35 | 0 | 70 | 0 | 100 | – | – | – |
| COC(=O)c1nn(C)c(C)c1NS(=O)(=O)c1nc2nc(C)cc(C)n2n1 [Compound 250] | 0 | 50 | 40 | 30 | 50 | 0 | 70 | 70 | 0 | 0 | 0 | 0 | 0 | 0 | 0 | 25 | 0 | 50 | 0 | – | – |
| Cc1ccn2nc(S(=O)(=O)Nc3c(F)c(F)cc(F)c3F)nc2n1 [Compound 163] | 0 | 0 | 90 | 0 | 70 | 0 | 20 | 70 | 0 | 0 | 0 | 0 | 0 | 0 | 0 | 0 | 0 | 40 | 50 | – | – |
| COc1ccc(Cl)c(NS(=O)(=O)c2nc3nc(C)ccn3n2)c1Cl [Compound 170] | 80 | 30 | 100 | 95 | 90 | 98 | 90 | – | 85 | 75 | 25 | 60 | 35 | 50 | 0 | 70 | 25 | 25 | 80 | 30 | pest or weed control at 280.212 g/ha [21]: 0%; pest or weed control at 280.212 g/ha [22]: 40%; plant injury at 280.212 g/ha [23]: 90%; pest or weed control at 280.212 g/ha [24]: 0%; pest or weed control at 280.212 g/ha [25]: 30%; pest or weed control at 280.212 g/ha [26]: 70%; plant injury at 280.212 g/ha [27]: 100%; plant injury at 280.212 g/ha [28]: 0%; pest or weed control at 280.212 g/ha [29]: 85%; pest or weed control at 280.212 g/ha [30]: 90%; plant injury at 280.212 g/ha [31]: 70%; plant injury at 280.212 g/ha [32]: 10%; plant injury at 280.212 g/ha [33]: 20%; plant injury at 280.212 g/ha [34]: 80% |
| Cc1ccn2nc(S(=O)(=O)N(c3c(F)cccc3F)S(=O)(=O)c3ccccc3)nc2n1 [Compound 298] | – | 0 | 100 | 80 | 50 | 0 | 80 | 85 | 50 | 65 | 0 | 25 | 40 | 35 | 0 | 50 | 40 | 50 | 75 | 95 | pest or weed control at 280.212 g/ha [35]: 50%; pest or weed control at 280.212 g/ha [21]: 100%; pest or weed control at 280.212 g/ha [22]: 100%; plant injury at 280.212 g/ha [23]: 100%; pest or weed control at 280.212 g/ha [24]: 100%; pest or weed control at 280.212 g/ha [25]: 70%; pest or weed control at 280.212 g/ha [26]: 100%; plant injury at 280.212 g/ha [27]: 100%; plant injury at 280.212 g/ha [28]: 0%; pest or weed control at 280.212 g/ha [29]: 100%; pest or weed control at 280.212 g/ha [30]: 95%; plant injury at 280.212 g/ha [31]: 100%; plant injury at 280.212 g/ha [32]: 50%; plant injury at 280.212 g/ha [33]: 40%; plant injury at 280.212 g/ha [34]: 95% |
| Cc1cc(C)n2nc(S(=O)(=O)Nc3c(F)c(F)cc(F)c3F)nc2n1 [Compound 90] | 0 | 50 | 100 | – | 70 | 0 | 50 | 70 | 20 | 0 | 0 | – | 0 | 0 | 0 | 30 | 0 | 75 | 70 | – | – |
